Results from ChEMBL document CHEMBL1201862, “PubChem BioAssay data set” (2004).
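Exposure lasted 48 hours, with cells grown in 96-well plates and compounds tested at five concentrations. Abbreviation: GI50, concentration required for 50% inhibition of growth.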 Activity calls are given as the source filed them. Cut-off read from the data, not from the text of the source: active = GI50 up to about 1.1 µM and inactive = higher.

Legend:
Assay in all cases: inhibition of tumour cell growth, NCI panel, 48 h
[1] = tested on: ACHN
[2] = tested on: DU-145
[3] = tested on: HCC 2998
[4] = tested on: HL-60
[5] = tested on: KM12
[6] = tested on: LXFL 529
[7] = tested on: MCF7
[8] = tested on: MDA-MB-231
[9] = tested on: MDA-N
[10] = tested on: NCI-H226
[11] = tested on: NCI-H23
[12] = tested on: OVCAR-4
[13] = tested on: SF-295
[14] = tested on: SK-MEL-28
[15] = tested on: SK-MEL-2
[16] = tested on: SK-MEL-5
[17] = tested on: SNB-75
[18] = tested on: SR
[19] = tested on: SW-620
[20] = tested on: UACC-62

Measured: GI50

O=C1CSC(/C(=C\c2ccc(Cl)cc2)c2nc3ccccc3[nH]2)=N1
inactive: [1] 6.68 µM | [2] 13.4 µM | [3] 3.43 µM | [4] 26.5 µM | [5] 13.2 µM | [6] 20.8 µM | [7] 14.6 µM | [8] 12.7 µM | [9] 18.2 µM | [10] 6.93 µM | [11] 14.8 µM | [12] 16.1 µM | [13] 9.2 µM | [14] 15.7 µM | [15] 17.9 µM | [16] 12.1 µM | [17] 12.3 µM | [18] 36.3 µM | [19] 18.5 µM | [20] 18.7 µM

COc1ccc2nc3cc(Cl)ccc3c(Nc3ccccc3-c3ccccc3Nc3c4ccc(Cl)cc4nc4ccc(OC)cc34)c2c1
inactive: [1] > 29.4 µM | [2] 69.3 µM | [3] 31.6 µM | [4] 2.66 µM | [5] 22.7 µM | [6] 17.1 µM | [7] 40.8 µM | [8] 26.9 µM | [9] 3.43 µM | [10] > 41.1 µM | [11] 21.7 µM | [12] 17.4 µM | [13] 33 µM | [14] 41.8 µM | [15] 34.2 µM | [16] 18.1 µM | [17] 14.7 µM | [18] 3.5 µM | [19] 15.4 µM | [20] 27.5 µM

CCOc1ccc(NC(=O)C(=O)CC(=O)c2sc(NNC(C)=O)nc2C)cc1
inactive: [1] > 100 µM | [3] > 100 µM | [4] > 100 µM | [5] > 100 µM | [6] > 100 µM | [10] > 100 µM | [11] > 100 µM | [12] > 100 µM | [13] > 100 µM | [14] > 100 µM | [15] > 100 µM | [16] > 100 µM | [17] > 100 µM | [18] > 100 µM | [19] > 100 µM | [20] > 100 µM
